Legend:
[1] = Body weight after long-term sub-cutaneous treatment; assay type: in vivo, rat (Sprague-Dawley); conditions: 4 weeks
Experimental: The action on the endocrine glands and the genital tractus, and a possible ulcerogenic effect were investigated, together with the effects on the glucidic and proteic metabolisms, on the hydro-mineral equilibrium after long-term administration.
There were utilized groups of 10 male rats and ten female rats of Sprague-Dawley S.P.F. strain which have been given the products under study by sub-cateneous methods daily for four weeks.
The products were administered in suspension in 5 % carboxy-methyl-cellulose under a volume of 0.5 ml. per 100 grams of body weight, in three different doses, the animals of the reference lot receiving the same volume of the vehicle alone.
In order to confirm certain previous results of the pharmacological short-term study, there has furthermore been determined, for each lot of animals:
The evolution of weight and the consumption of food during the treatment;
During the course of the long-term study, the JO 1016 was administered daily to the male and female rats in doses of 100 mg/kg, 250 mg/kg, 500 mg/kg by the sub-cutaneous route. […]

[2] = Action on the protein metabolism: weight increase of immature rats, 96 hours; assay type: in vivo, rat (Wistar
From the text: The action on the protein metabolism was examined by means of a test, the principle of which is as follows:
The administration of gluco-corticoids results in a disturbance of the protein metabolism, which is shown by an exaggerated protein catabolism resulting in shrinking of the tissues objectified by an inhibition of growth in weight in the young animal and a loss of body weight in the adult animal.
For this study, immature rats of Wistar strain were utilized, the initial weight of which was between 45 and 55 grams, which were distributed at random groups of 10.
The products under study were administered daily for 4 days. The animals were weighed daily during the 4 days of treatment and 24 hours after the last dose.
The products tested were administered either orally or by sub-cutaneous injection, in suspension in 5 % gum arabic for the oral route or in carboxy-methyl-cellulose at 5 % for the sub-cutaneous method, the animals of the reference group receiving the same volume of vehicle by the same method as the corresponding animals treated.
The average variation of the body weight during the 96 hours treatment was calculated for each group of animals.
The increase in weight of immature rats (45 to 55 grams) treated for 96 hours following the procedure (g) by JO 1016, by the oral or the sub-cutaneous routes (average weight at the end of the study, less the average weight at the beginning) are indicated in the following Table XVIII.

CC(C)(C)C(=O)SCC(=O)[C@@]1(O)CC[C@H]2[C@@H]3CCC4=CC(=O)CC[C@]4(C)[C@H]3[C@@H](O)C[C@@]21C [JO 1016, Dihydroxy-11β, 17α thio-21 dioxo-3,20 pregnene-4-21 pivalate]
Body weight, average ± standard error ([1]; female rats, 100 mg/kg s.c.): 219 ± 3.06 g
Body weight, percentages of variation and probabilities ([1]; female rats, 100 mg/kg s.c.): N.S.
Body weight, average ± standard error ([1]; female rats, 250 mg/kg s.c.): 216 ± 3.18 g
Body weight, percentages of variation and probabilities ([1]; female rats, 250 mg/kg s.c.): N.S.
Body weight, average ± standard error ([1]; female rats, 500 mg/kg s.c.): 198 ± 4.85 g
Body weight, average ± standard error ([1]; male rats, 100 mg/kg s.c.): 299 ± 45.2 g
Body weight, percentages of variation and probabilities ([1]; male rats, 100 mg/kg s.c.): N.S.
Body weight, average ± standard error ([1]; male rats, 250 mg/kg s.c.): 289 ± 7.7 g
Body weight, percentages of variation and probabilities ([1]; male rats, 250 mg/kg s.c.): N.S.
Body weight, average ± standard error ([1]; male rats, 500 mg/kg s.c.): 274 ± 2,5 g
Increase in weight of immature rats ([2]; 1 mg/rat/day, sub-cutaneous route): 17 g
Increase in weight of immature rats ([2]; 3 mg/rat/day, oral route): 14 g
Increase in weight of immature rats ([2]; 10 mg/rat/day (last line of Table XVIII (so in the source)), oral route): 8 g
Increase in weight of immature rats ([2]; 10 mg/rat/day, oral route): 11 g
Increase in weight of immature rats ([2]; 10 mg/rat/day, sub-cutaneous route): 16 g
Increase in weight of immature rats ([2]; 30 mg/rat/day, oral route): 13 g
Increase in weight of immature rats ([2]; 30 mg/rat/day, sub-cutaneous route): 16 g

— patent US4014909A, “Esters of 21-thiol steroids” (priority 1974, dated 1977)
